The text below walks through data of paper PMC10332445 (Journal of medicinal chemistry, 2023).

The target in assay [1] is CRBN (Homo sapiens, UniProt Q96SW2). The assay is described as follows: NanoBRET live-cell target engagement of CRBN in HEK293 cells. Type of assay: cell-based. The note with it: number in parentheses, 37 °C. For orientation: Bioluminescence resonance energy transfer reports proximity on the nanometre scale.
Assay [2] deals with T1, BTK (Homo sapiens, UniProt Q06187). Put plainly: NanoBRET live-cell target engagement of BTK in HEK293 cells. The class given is cell-based. The note with it: for Hill slope, BTK target engagement: number in parentheses, 37 °C.
Assay [3] concerns the target ternary complex between BTK and CRBN (Homo sapiens, UniProt Q06187+Q96SW2). The assay is described as follows: NanoBRET ternary complex formation assay in HEK293 cells. Type of assay: cell-based. The note with it: for Ternary complex formation (in words): live-cell NanoBRET.
In assay [4] the target is T1, BTK. The assay is described as follows: BTK degradation in Ramos cells by western blot. The note with it: for BTK degradation by parent molecules: GDC-0853 and/or pomalidomide, 3000 nM to 0.15 nM, Figure S2. The class given is cell-based. A general note: In western blotting, separated proteins are transferred to a membrane and probed.
Assay [5] relates to caspase-3, PARP, Bcl-2, Mcl-1. Put plainly: Apoptosis pathway proteins by western blot in TMD8 and Mino cells. The class given is cell-based. The note with it: 48 h.
Assay [6] has as its target T1, BTK. The assay is described as follows: BTK degradation in seven B-cell malignant cell lines. The note with it: Figure S4. Type of assay: cell-based.
In assay [7] the test system is BCR signaling pathway. The assay is described as follows: BCR signaling pathway western blots in TMD8 and Mino cells. The class given is cell-based. The note with it: 48 h, stimulated with anti-human IgM.
The test system of assay [8] is TMD8 cells. The assay is described as follows: Apoptosis by Annexin-V/PI flow cytometry, TMD8 cells. The class given is cell-based. The note with it: 48 h; for Induction of apoptosis: TMD8 cells, 3000 nM to 0.15 nM. Background: Flow cytometry measures light scatter and fluorescence of single cells or particles in a stream.
In assay [9] the test system is IKZF1 and IKZF3. Put plainly: Label-free proteomics in TMD8 cells: neo-substrates IKZF1/3. The class given is cell-based, human. The note with it: 111 nM, 6 h.
Assay [10] has as its system Mino cells. The assay is described as follows: Apoptosis by Annexin-V/PI flow cytometry, Mino cells. The class given is cell-based. The note with it: 48 h, 3000 nM to 0.15 nM.
The target of assay [11] is GSPT1 (Homo sapiens, UniProt P15170). Put plainly: Label-free proteomics in TMD8 cells: GSPT1. The note with it: 111 nM, 6 h. Type of assay: cell-based.
Assay [12] concerns CSK, SYK, FRK, HCK, LYN, BAZ1B, TYK2, and Fes/Fps. The assay is described as follows: Label-free proteomics in TMD8 cells: other kinases. The class given is cell-based, human. The note with it: 111 nM, 6 h.
Assay [13] concerns Mino cells. The assay is described as follows: Cell viability, CellTiter-Glo 2.0, Mino cells. Type of assay: cell-based. The note with it: read-out: Mino Cells IC50, 48 h (Figure 6) or 72 h (method).
Assay [14] has as its system TMD8 cells. Put plainly: Cell viability, CellTiter-Glo 2.0, TMD8 cells. Type of assay: cell-based. The note with it: read-out: TMD8 Cells IC50, 48 h.

ternary complex between BTK and CRBN, sequence (Q06187 whole entry): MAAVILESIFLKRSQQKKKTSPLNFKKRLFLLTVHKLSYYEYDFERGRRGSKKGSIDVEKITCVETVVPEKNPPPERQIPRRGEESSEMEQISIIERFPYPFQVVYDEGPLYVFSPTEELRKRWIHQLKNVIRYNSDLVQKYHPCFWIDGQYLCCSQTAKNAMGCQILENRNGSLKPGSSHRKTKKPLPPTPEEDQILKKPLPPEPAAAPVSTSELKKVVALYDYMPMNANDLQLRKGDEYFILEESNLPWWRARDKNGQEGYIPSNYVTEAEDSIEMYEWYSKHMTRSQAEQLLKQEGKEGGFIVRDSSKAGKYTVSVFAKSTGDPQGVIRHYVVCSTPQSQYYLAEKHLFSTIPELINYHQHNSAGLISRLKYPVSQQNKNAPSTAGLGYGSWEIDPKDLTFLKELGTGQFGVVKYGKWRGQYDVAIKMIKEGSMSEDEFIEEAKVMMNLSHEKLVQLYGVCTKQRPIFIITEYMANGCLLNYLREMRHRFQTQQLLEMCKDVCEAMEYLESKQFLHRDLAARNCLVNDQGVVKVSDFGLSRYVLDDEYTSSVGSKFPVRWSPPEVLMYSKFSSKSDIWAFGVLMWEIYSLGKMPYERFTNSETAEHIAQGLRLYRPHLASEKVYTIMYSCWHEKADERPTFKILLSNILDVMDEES
ternary complex between BTK and CRBN, sequence (Q96SW2 whole entry): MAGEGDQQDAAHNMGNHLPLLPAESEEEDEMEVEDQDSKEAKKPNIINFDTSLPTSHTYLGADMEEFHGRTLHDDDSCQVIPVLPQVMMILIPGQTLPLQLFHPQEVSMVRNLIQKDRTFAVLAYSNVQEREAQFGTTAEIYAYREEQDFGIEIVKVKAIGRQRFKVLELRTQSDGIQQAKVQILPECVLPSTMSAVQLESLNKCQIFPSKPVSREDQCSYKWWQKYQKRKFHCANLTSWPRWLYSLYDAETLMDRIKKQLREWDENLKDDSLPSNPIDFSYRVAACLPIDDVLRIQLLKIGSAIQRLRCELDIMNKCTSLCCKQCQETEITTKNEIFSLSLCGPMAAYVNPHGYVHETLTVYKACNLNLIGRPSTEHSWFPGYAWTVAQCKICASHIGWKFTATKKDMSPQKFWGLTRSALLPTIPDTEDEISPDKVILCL
T1 sequence (Q06187 whole entry): as the sequence (Q06187 whole entry) above
GSPT1, sequence (Q96SW2 whole entry partner): as the sequence (Q96SW2 whole entry) above
GSPT1, sequence (Q16531 whole entry partner): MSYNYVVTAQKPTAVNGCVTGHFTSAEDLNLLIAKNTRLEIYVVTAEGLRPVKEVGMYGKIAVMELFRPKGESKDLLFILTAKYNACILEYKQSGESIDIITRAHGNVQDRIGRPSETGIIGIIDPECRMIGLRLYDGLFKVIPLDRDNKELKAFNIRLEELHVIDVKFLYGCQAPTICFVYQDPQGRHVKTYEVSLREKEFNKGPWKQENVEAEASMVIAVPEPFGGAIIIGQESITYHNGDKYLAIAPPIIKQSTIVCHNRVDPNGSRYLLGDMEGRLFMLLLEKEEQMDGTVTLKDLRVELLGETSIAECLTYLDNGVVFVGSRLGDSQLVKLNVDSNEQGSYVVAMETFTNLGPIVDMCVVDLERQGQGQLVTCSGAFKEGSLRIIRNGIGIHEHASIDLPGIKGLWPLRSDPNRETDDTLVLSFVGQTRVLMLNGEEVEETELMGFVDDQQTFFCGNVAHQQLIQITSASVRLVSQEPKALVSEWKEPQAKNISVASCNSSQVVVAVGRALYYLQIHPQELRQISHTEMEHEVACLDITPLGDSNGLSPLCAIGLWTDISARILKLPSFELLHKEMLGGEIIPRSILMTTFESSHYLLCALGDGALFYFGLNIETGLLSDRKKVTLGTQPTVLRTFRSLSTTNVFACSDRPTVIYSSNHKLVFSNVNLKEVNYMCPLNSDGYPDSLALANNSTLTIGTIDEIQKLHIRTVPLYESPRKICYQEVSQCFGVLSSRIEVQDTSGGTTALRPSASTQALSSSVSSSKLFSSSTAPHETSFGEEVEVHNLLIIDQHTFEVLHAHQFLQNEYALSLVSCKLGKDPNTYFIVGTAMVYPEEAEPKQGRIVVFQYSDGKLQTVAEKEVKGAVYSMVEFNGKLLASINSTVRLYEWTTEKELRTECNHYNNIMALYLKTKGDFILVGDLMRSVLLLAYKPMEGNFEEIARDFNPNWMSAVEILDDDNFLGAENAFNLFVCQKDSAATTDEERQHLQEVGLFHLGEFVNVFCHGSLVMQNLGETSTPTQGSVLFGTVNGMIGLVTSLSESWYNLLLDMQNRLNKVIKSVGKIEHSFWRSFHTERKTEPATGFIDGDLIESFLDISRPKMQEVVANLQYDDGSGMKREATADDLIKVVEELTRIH
GSPT1, sequence (P15170 whole entry): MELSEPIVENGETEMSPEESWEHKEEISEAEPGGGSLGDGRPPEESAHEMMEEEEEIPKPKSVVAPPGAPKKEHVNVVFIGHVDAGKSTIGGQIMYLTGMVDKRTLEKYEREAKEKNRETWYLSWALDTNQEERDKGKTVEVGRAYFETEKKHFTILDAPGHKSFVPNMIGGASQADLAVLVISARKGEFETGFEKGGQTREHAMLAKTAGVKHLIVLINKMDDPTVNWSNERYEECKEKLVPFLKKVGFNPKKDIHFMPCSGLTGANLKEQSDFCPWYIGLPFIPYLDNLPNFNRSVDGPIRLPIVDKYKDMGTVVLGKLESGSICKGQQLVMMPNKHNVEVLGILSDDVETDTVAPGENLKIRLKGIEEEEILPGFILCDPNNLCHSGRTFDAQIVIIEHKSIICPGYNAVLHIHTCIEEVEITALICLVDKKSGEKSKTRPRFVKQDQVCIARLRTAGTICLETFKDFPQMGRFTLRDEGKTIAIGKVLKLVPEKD
CRBN, sequence (Q96SW2 whole entry): as the sequence (Q96SW2 whole entry) above

Take `C[C@H]1CN(C(=O)c2cccc3c2C(=O)N(C2CCC(=O)NC2=O)C3=O)CCN1c1ccc(Nc2cc(-c3ccnc(N4CCn5c(cc6c5CC(C)(C)C6)C4=O)c3CO)cn(C)c2=O)nc1` (stereo partly drawn) [PTD13, 4-((S)-4-(6-((2’-(7,7-dimethyl-1-oxo-1,3,4,6,7,8-hexahydro-2H-cyclopenta[4,5]pyrrolo[1,2-a]pyrazin-2-yl)-3’-(hydroxymethyl)-1-methyl-6-oxo-1,6-dihydro-[3,4’-bipyridin]-5-yl)amino)pyridin-3-yl)-3-methylpiperazine-1-carbonyl)-2-(2,6-dioxopiperidin-3-yl)isoindoline-1,3-dione]: the “Hill slope, CRBN target engagement” value in [1] was 1.0. For the same compound, the “Hill slope, BTK target engagement” value in [2] was 1.4. Moreover, in [3], the “Ternary complex formation (in words)” value is recorded as “no ternary complex was observed”.

`Cc1ncsc1-c1ccc(CNC(=O)[C@@H]2C[C@@H](O)CN2C(=O)[C@@H](NC(=O)COCCOCCCCCCC(=O)N2CCN(c3ccc(Nc4cc(-c5ccnc(N6CCn7c(cc8c7CC(C)(C)C8)C6=O)c5CO)cn(C)c4=O)nc3)[C@@H](C)C2)C(C)(C)C)cc1` [PTD3, (2S,4R)-1-((S)-2-(2-(2-((7-((S)-4-(6-((2’-(7,7-dimethyl-1-oxo-1,3,4,6,7,8-hexahydro-2H-cyclopenta[4,5]pyrrolo[1,2-a]pyrazin-2-yl)-3’-(hydroxymethyl)-1-methyl-6-oxo-1,6-dihydro-[3,4’-bipyridin]-5-yl)amino)pyridin-3-yl)-3-methylpiperazin-1-yl)-7-oxoheptyl)oxy)ethoxy)acetamido)-3,3-dimethylbutanoyl)-4-hydroxy-N-(4-(4-methylthiazol-5-yl)benzyl)pyrrolidine-2-carboxamide]: in assay [4] (Ramos and JeKo-1 cell lines, 17 h, concentrations lower than 3000 nM, Figure S1), the “BTK degradation (VHL-based PROTAC)” value is “no degradation was observed”.

In the case of `C[C@H]1CN(C(=O)CCCCCCCCCCCNc2cccc3c2C(=O)N(C2CCC(=O)NC2=O)C3=O)CCN1c1ccc(Nc2cc(-c3ccnc(N4CCn5c(cc6c5CC(C)(C)C6)C4=O)c3CO)cn(C)c2=O)nc1` (stereo partly drawn) [PTD15, 4-((12-((S)-4-(6-((2’-(7,7-dimethyl-1-oxo-1,3,4,6,7,8-hexahydro-2H-cyclopenta[4,5]pyrrolo[1,2-a]pyrazin-2-yl)-3’-(hydroxymethyl)-1-methyl-6-oxo-1,6-dihydro-[3,4’-bipyridin]-5-yl)amino)pyridin-3-yl)-3-methylpiperazin-1-yl)-12-oxododecyl)amino)-2-(2,6-dioxopiperidin-3-yl)isoindoline-1,3-dione], in assay [1], the “Hill slope, CRBN target engagement” value is given as 0.5. Besides, the “Fold less potent than GDC-0853 at engaging BTK” value in assay [2] (NanoBRET) stood at 250 fold. In [2], the “Hill slope, BTK target engagement” value turned out to be 1.3.

For the compound `C[C@H]1CN(C(=O)CNc2cccc3c2C(=O)N(C2CCC(=O)NC2=O)C3=O)CCN1c1ccc(Nc2cc(-c3ccnc(N4CCn5c(cc6c5CC(C)(C)C6)C4=O)c3CO)cn(C)c2=O)nc1` (stereo partly drawn) [PTD10, 4-((2-((S)-4-(6-((2’-(7,7-dimethyl-1-oxo-1,3,4,6,7,8-hexahydro-2H-cyclopenta[4,5]pyrrolo[1,2-a]pyrazin-2-yl)-3’-(hydroxymethyl)-1-methyl-6-oxo-1,6-dihydro-[3,4’-bipyridin]-5-yl)amino)pyridin-3-yl)-3-methylpiperazin-1-yl)-2-oxoethyl)amino)-2-(2,6-dioxopiperidin-3-yl)isoindoline-1,3-dione], in [5], the “Levels of Bcl-2 and Mcl-1” value is listed as “significant down-regulation”; the “Levels of cleaved-PARP and cleaved caspase-3” value is recorded as “increase”. In addition, the “BTK degradation in B-cell malignant cell lines” value in assay [6] was “potent degradation effects”. Moreover, in assay [7], the “Effect on BCR signaling pathway (p-PLCγ2, p-BTK, p-AKT, p-NF-κB, PLCγ2, AKT, NF-κB)” value was “Robust downregulation was observed”. The “Concentration at which robust apoptosis was detected” value in assay [8] (TMD8 and Mino cell lines) came out at 333 nM. For the same compound, in assay [8], the Induction of apoptosis result is given as “induce apoptosis in a dose-dependent manner”. Besides, the “Degradation of neo-substrates IKZF1 and IKZF3” value in [9] was “degrade”. In addition, the “Hill slope, CRBN target engagement” value in assay [1] was determined as 1.0. For the same compound, the Induction of apoptosis result in assay [10] is listed as “induce apoptosis in a dose-dependent manner”. The “Concentration at which Hook effect was observed” value in [4] (BTK degradation, Figure 3) is on record as above 333 nM. Besides, the “BTK degradation on co-treatment with competitor” value in assay [4] (Ramos cells, 111 nM PTD10 with 1 μM GDC-0853 or 20 μM iberdomide (CC-220), 17 h) is given as “BTK degradation was completely blocked”. Besides, in assay [4] (Ramos cells, pre-treated 2 h, then 111 nM PTD10 for 4 h), the “BTK degradation after pre-treatment with bortezomib or MLN-4924” value was “inhibition of BTK degradation”. In assay [2], the “Hill slope, BTK target engagement” value turned out to be 1.9. For the same compound, the “Ternary complex formation (in words)” value in assay [3] is recorded as “prominent ternary complex formation”. In addition, the “Ternary Complex Formation (maximum)” value in assay [3] (maximum ternary complex formation setting the BRET ratio for PTD10 at 100%) worked out at 100%. Also, in assay [11], the “Effect on levels of GSPT1” value was “did not affect the levels”. Further, the “Effect on abundance of other kinases” value in assay [12] is given as “did not affect the abundance of other kinases”.

For the compound `C[C@H]1CN(C2COC2)CCN1c1ccc(Nc2cc(-c3ccnc(N4CCn5c(cc6c5CC(C)(C)C6)C4=O)c3CO)cn(C)c2=O)nc1` [GDC-0853, fenebrutinib, reference compound], in assay [7], the “Effect on BCR signaling pathway (p-PLCγ2, p-BTK, p-AKT, p-NF-κB, PLCγ2, AKT, NF-κB)” value is “less prominent”. In addition, the Induction of apoptosis entry in [8] is “a dose-dependent effect was observed”; in assay [10], “did not cause apoptosis”. The “BTK degradation by parent molecules” value in assay [4] (Ramos cells) is given as “no BTK degradation was observed”.

Regarding `C[C@H]1CN(C(=O)COc2cccc3c2C(=O)N(C2CCC(=O)NC2=O)C3=O)CCN1c1ccc(Nc2cc(-c3ccnc(N4CCn5c(cc6c5CC(C)(C)C6)C4=O)c3CO)cn(C)c2=O)nc1` (stereo partly drawn) [PTD14, 4-(2-((S)-4-(6-((2’-(7,7-dimethyl-1-oxo-1,3,4,6,7,8-hexahydro-2H-cyclopenta[4,5]pyrrolo[1,2-a]pyrazin-2-yl)-3’-(hydroxymethyl)-1-methyl-6-oxo-1,6-dihydro-[3,4’-bipyridin]-5-yl)amino)pyridin-3-yl)-3-methylpiperazin-1-yl)-2-oxoethoxy)-2-(2,6-dioxopiperidin-3-yl)isoindoline-1,3-dione], in assay [9], the “Degradation of neo-substrates IKZF1 and IKZF3” value was “no degradation”. Moreover, the “Effect on levels of GSPT1” value in assay [11] was “did not affect the levels”. Further, the “Effect on abundance of other kinases” value in assay [12] is given as “did not affect the abundance of other kinases”.

One may read the IC50 as the concentration at which inhibition is half-maximal. “4-((2-(2-(2-(2-azidoethoxy)ethoxy)ethoxy)ethyl)amino)-2-(2,6-dioxopiperidin-3-yl)isoindoline-1,3-dione [P13I, reference compound]”: the “Degradation of neo-substrates IKZF1 and IKZF3” value in assay [9] is reported as “degrade”. Further, the half-maximal inhibitory concentration (IC50) in assay [13] came to 10.4 ± 2.4 nM; in [14], 15 ± 2.8 nM. Further, in assay [11], the “Effect on levels of GSPT1” value is reported as “did not affect the levels”. The “Effect on abundance of other kinases” value in assay [12] was “significant degradation of some off-targets, specifically, CSK and FRK”.

Take `Nc1cccc2c1C(=O)N(C1CCC(=O)NC1=O)C2=O` (stereo not shown) [Pomalidomide, pomalidomide, reference compound]: the Induction of apoptosis entry in [8] is “little effect”; in assay [10], “induced apoptosis in Mino cells in a dose-dependent manner”. Moreover, in assay [4] (Ramos cells), the “BTK degradation by parent molecules” value is “no BTK degradation was observed”.

For the compound `C[C@H]1CN(C(=O)CNc2cccc3c2CN(C2CCC(=O)NC2=O)C3=O)CCN1c1ccc(Nc2cc(-c3ccnc(N4CCn5c(cc6c5CC(C)(C)C6)C4=O)c3CO)cn(C)c2=O)nc1` (stereo partly drawn) [PTD12, 3-(4-((2-((S)-4-(6-((2’-(7,7-dimethyl-1-oxo-1,3,4,6,7,8-hexahydro-2H-cyclopenta[4,5]pyrrolo[1,2-a]pyrazin-2-yl)-3’-(hydroxymethyl)-1-methyl-6-oxo-1,6-dihydro-[3,4’-bipyridin]-5-yl)amino)pyridin-3-yl)-3-methylpiperazin-1-yl)-2-oxoethyl)amino)-1-oxoisoindolin-2-yl)piperidine-2,6-dione], in [4] (DC50 ratio), the “Decrease in degradation activity compared to PTD10” value is reported as ~ 8 fold.
